The subject of test [1] is Bacillus pumilus (CNCM 7618). The test is described as follows: Bactericidal action: growth inhibition test. The settings on record: 100 µg/ml in 60% Dimethylsulfoxyd / 40% destilliertem Wasser, after 24 Stunden. The format is cell-based. How it is done: (§1) Das Produkt der Formel II wurde an folgenden Mikroorganismen geprüft: • Bacillus pumilus (CNCM 7618) und • Bacillus subtilis (ATCC 6533)
(§2) Es wurde auf eine Konzentration von 100 µg/ml in einem Gemisch aus 60% Dimethylsulfoxyd und 40% destilliertem Wasser solubilisiert.

Test [2] concerns Bacillus subtilis (ATCC 6533). The test is described as follows: Bactericidal action: growth inhibition test. The conditions noted are these: 100 µg/ml in 60% Dimethylsulfoxyd / 40% destilliertem Wasser, after 24 Stunden. Format: cell-based. How it is done:
as §1, §2

`COc1cc(O)c2c(c1)C(=O)c1cc3c(c(O)c1C2=O)C(O)CC(C)(O)C3=O` (single isomer, unassigned; (+)) [Verbindung II, (+)-8-Desmethoxy-steffimycinon]: the Wachstum entry in test [1] and in test [2] was “völlig gehemmt” each time.
